Test results: PMC9404653, “EphA4 targeting agents protect motor neurons from cell death induced by amyotrophic lateral sclerosis -astrocytes” (iScience, 2022)
Read-outs that look alike come from different tables or passages of the source. Non-standard residues stand in square brackets, D forms with d. Residues, ends and D or L forms follow the SMILES beside them. *: point of attachment. Cyclohexanoyl(1S,3S-3-NH2) = N[C@H]1CCC[C@H](C(=O)*)C1; Trp(5-OH) = N[C@@H](Cc1c[nH]c2ccc(O)cc12)C(=O)O; NH(4-morpholinophenyl) = c1cc(N2CCOCC2)ccc1N*; Bip = N[C@@H](Cc1ccc(-c2ccccc2)cc1)C(=O)O; hArg = N=C(N)NCCCC[C@H](N)C(=O)O; X1 = c1cc(N2CCNCC2)ccc1N*

Legend:
EphA4-LBD = biological target: T1, EphA4-LBD (Homo sapiens, UniProt P54764); assay: 2D [13C,1H] NMR chemical shift perturbation of 13Cε-Met labeled EphA4-LBD; assay type: binding; details: for Chemical shift perturbation to Met 115 (G-H loop): 13Cε-Met labeled EphA4-LBD; for Δδ Met 60 / Δδ Met 164: weight average 1H/13C chemical shift perturbation, 20 μM EphA4-LBD, 298 K
T1 construct: Met labeled EphA4-LBD (29-209) (20 μM) in absence (blue)
T1 sequence (P54764 29-209): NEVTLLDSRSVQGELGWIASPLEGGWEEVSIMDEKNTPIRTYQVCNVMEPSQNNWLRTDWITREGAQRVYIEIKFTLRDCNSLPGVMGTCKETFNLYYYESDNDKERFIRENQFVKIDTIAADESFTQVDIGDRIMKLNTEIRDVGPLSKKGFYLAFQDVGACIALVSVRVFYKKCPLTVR
Experimental: (§1) Previously, we deployed the HTS by NMR (High-throughput Screening by Nuclear Magnetic Resonance) approach targeting the EphA4 ligand-binding domain to identify possible ligands from a tri-peptide positional scanning library consisting of ∼125,000 agents ([Wu et al., 2013]). Initial screen and subsequent structure-activity relationships studies lead to agent 123C4 (Table 1), with an affinity for the isolated EphA4 ligand-binding domain (LBD) of ∼400 nM by isothermal titration calorimetry (ITC) ([Wu et al., 2013], [2017]). In follow-up studies, we derived a new combinatorial library based on the critical N-terminal aliphatic amine of 123C4 (a common feature also of antagonistic peptides) ([Olson et al., 2016]; [Wu et al., 2013]) and exploited our previous experience with the fHTS by NMR ([Baggio et al., 2017]), we rapidly identified a new hit molecule ([Baggio et al., 2021]). We also developed an efficient strategy to anticipate if ligand binding would induce changes in EphA4 conformation that are more compatible with agonist versus antagonist binding ([Baggio et al., 2021]). This was accomplished by protein NMR using EphA4-LBD that is uniformly labeled with ^13C^ε-methionine ([Wu et al., 2017]). […] In particular, EphA4 residues Met 164, Met 60 (in the binding site), and Met 115 are located in the D-E loop, J-K loop, and G-H loop of the EphA4-LBD, respectively (Figures 1A-1C). […] For example, we reported that the 13mer antagonistic cyclic peptide APY-d3 ([Olson et al., 2016]) induces changes not only in binding site Met 164 and Met 60 resonances, but also in Met 115, located in the G-H loop, that is at the EphA4-LBD dimerization interface (Figure 1D). […] With these considerations in mind, ligand 150D4 was previously derived as described in our recent studies (Table 1; [Baggio et al., 2021]). […] Dissociation constant determination was obtained via isothermal titration calorimetry (ITC) measurements (Table 1, Figure 2). Similarly, selectivity studies were performed via ITC and ligand-binding domain constructs representing the two most closely related Eph domains, namely EphA3 and EphA2 (Table 1). […] These studies culminated in the identification of agonistic agents targeting the EphA4 ligand-binding domain.
NMR spectra were acquired on Bruker Avance III 700MHz spectrometer equipped with a TCI cryoprobe. All NMR data were processed and analyzed using TOPSPIN 3.6.1 (Bruker, Billerica, MA, USA). 2D-[^13C,^1H]-HSQC experiments were acquired with 20 μM proteins using 16 scans with 2,048 and 256 complex data points in the ^1H and […] dimensions, respectively, at 298 K. Chemical shift changes (Δδ) in the 2D [^13C, ^1H] spectra were calculated as weight average perturbations observed in the ^1H and ^13C dimensions using the following Equation: Δδ=1/2∗[(Δ^1H)^2+(0.3∗Δ^13C)^2]

[1] = tested on: motor neurons co-cultured with patient iAstrocytes (sALS, mutant SOD1); assay: Patient iAstrocyte:motor neuron co-culture, motor neuron survival; details: 10 μM, sALS patient iAs (ALS1; second patient line Figure S3)
Experimental: Here, we tested the effectiveness of synthetic agonists by co-culturing patient iAs (2 sALS and 3 mtSOD1, Sup. Table 1) and mouse motor neurons in the presence of 123C4 (Figure 5A). Three days following co-culture surviving motor neurons were imaged (Figure 5B).
At the time of motor neuron seeding, the drug was removed via aspiration, and motor neurons in freshly prepared media were cultured on the iAs monolayer. In addition, 123C4 was also added at the time of co-culture as described in Figure 5A.
To accommodate a compound screen of this size, co-culture assays were adapted to a 384 well format.
Induced Astrocytes were generated by seeding a low quantity of NPCs into astrocyte medium (DMEM media containing 10% FBS and 0.2% N2) for five days. Following differentiation, iAstrocytes were lifted and seeded into a 96 well (10,000 cells per well) or 384 well (2500 cells per well) plate. Differentiations were repeated at separate passages and each differentiation was counted as an independent experiment.
Cells are sorted through a 100 μm tip with sheath pressure of 27. GFP + motor neurons were seeded in a 96 well plate (10,000 cells per well) or 384 well (1,000 cells per well) in triplicate for each condition. Co-cultures were imaged with InCell Analyzer 6000 automated microscopy system for up to six days. […]

[2] = Aqueous solubility by 1H NMR; assay type: physicochemical; details: water; determined by 1H NMR
[3] = biological target: T2, EphA4 ligand-binding domain (Homo sapiens, UniProt P54764); assay: Isothermal titration calorimetry (ITC) vs EphA4-LBD; details: for N (ITC stoichiometry): ITC curve, Figure 2C/2D; for Kd: ITC, 25°C, 25 mM Tris pH 7.5, 150 mM NaCl, 1% DMSO, mean ± SE, n = 2
T2 sequence (P54764 30-209 limits assumed): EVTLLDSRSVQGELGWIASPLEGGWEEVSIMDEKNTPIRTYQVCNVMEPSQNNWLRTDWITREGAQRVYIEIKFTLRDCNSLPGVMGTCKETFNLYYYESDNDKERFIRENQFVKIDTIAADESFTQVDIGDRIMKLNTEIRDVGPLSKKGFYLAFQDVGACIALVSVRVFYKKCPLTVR
Experimental: as §1
Isothermal titration calorimetry measurements were performed using the Affinity ITC Autosampler from TA Instruments (New Castle, DE). The titrations were performed in a reverse fashion by titrating the protein into the ligand solution. […] Each titration was performed twice and individually using the ITCRun software, analyzed using NanoAnalyze software (TA Instruments, New Castle, DE) and subsequently exported into Microsoft Excel. […]

[4] = biological target: ephrinA4 or ephrinA5 (Homo sapiens) (UniProt P52803); details: cited from earlier work
[5] = biological target: T2, EphA4 ligand-binding domain; details: ref Bowden et al., 2009a, 2009b, read-out: Affinity of intact ephrin ligands for EphA4; cited from earlier work

C[C@@H](NC(=O)[C@H](CCCCNC(=N)N)NC(=O)[C@H](Cc1ccc(-c2ccccc2)cc1)NC(=O)[C@H](Cc1c[nH]c2ccc(O)cc12)NC(=O)[C@H]1CCC[C@H](N)C1)C(=O)Nc1ccc(N2CCOCC2)cc1 [150E7, (1S,3S)-N-((S)-1-(((S)-3-([1,1'-biphenyl]-4-yl)-1-(((S)-6-guanidino-1-(((R)-1-((4-morpholinophenyl)amino)-1-oxopropan-2-yl)amino)-1-oxohexan-2-yl)amino)-1-oxopropan-2-yl)amino)-3-(5-hydroxy-1H-indol-3-yl)-1-oxopropan-2-yl)-3-aminocyclohexane-1-carboxamide] ({Cyclohexanoyl(1S,3S-3-NH2)}-[Trp(5-OH)][Bip][hArg][dA]-{NH(4-morpholinophenyl)})
Chemical shift perturbation to Met 115 (G-H loop) (EphA4-LBD): do not alter loop G-H
Δδ Met 60 (EphA4-LBD): +++ (+++ > 0.1 ppm)
Δδ Met 164 (EphA4-LBD): ++ (0.2 ppm < ++ < 0.25 ppm)
Motor neuron survival [1]: effective at preventing motor neuron death
solubility [2]: > 50 mM
N (ITC stoichiometry) [3]: 0.99
Kd [3]: 129 ± 4.5 nM

N=C(N)NCCCC[C@H](NC(=O)[C@H](Cc1ccc(-c2ccccc2)cc1)NC(=O)[C@H](Cc1c[nH]c2ccc(O)cc12)NC(=O)[C@H]1CCC[C@H](N)C1)C(=O)NCC(=O)Nc1ccc(N2CCNCC2)cc1 [150E8, (1S,3S)-N-((S)-1-(((S)-3-([1,1'-biphenyl]-4-yl)-1-(((S)-6-guanidino-1-oxo-1-((2-oxo-2-((4-(piperazin-1-yl)phenyl)amino)ethyl)amino)hexan-2-yl)amino)-1-oxopropan-2-yl)amino)-3-(5-hydroxy-1H-indol-3-yl)-1-oxopropan-2-yl)-3-aminocyclohexane-1-carboxamide] ({Cyclohexanoyl(1S,3S-3-NH2)}-[Trp(5-OH)][Bip][hArg]G-X1)
Chemical shift perturbation to Met 115 (G-H loop) (EphA4-LBD): do not alter loop G-H
Δδ Met 60 (EphA4-LBD): ++ (0.05 ppm < ++ < 0.1 ppm)
Δδ Met 164 (EphA4-LBD): ++++ (++++ > 0.3 ppm)
Motor neuron survival [1]: effective at preventing motor neuron death
solubility [2]: > 50 mM
N (ITC stoichiometry) [3]: 1.01
Kd [3]: 94.3 ± 4.4 nM

EphA4 ligand-binding domain (from UniProt P54764)
Kd [4]: 360 nM

B1: ephrinA5: intact ephrin ligand of EphA4 (protein, UniProt P52803 21-203, looked up)
Ephrin-A5: QDPGSKAVADRYAVYWNSSNPRFQRGDYHIDVCINDYLDVFCPHYEDSVPEDKTERYVLYMVNFDGYSACDHTSKGFKRWECNRPHSPNGPLKFSEKFQLFTPFSLGFEFRPGREYFYISSAIPDNGRRSCLKLKVFVRPTNSCMKTIGVHDRVFDVNDKVENSLEPADDTVHESAEPSRGEN
Kd [5]: ~360 nM

B2: ephrinA4: intact ephrin ligand of EphA4 (protein, UniProt P52798 26-170, looked up)
Ephrin-A4: LRHVVYWNSSNPRLLRGDAVVELGLNDYLDIVCPHYEGPGPPEGPETFALYMVDWPGYESCQAEGPRAYKRWVCSLPFGHVQFSEKIQRFTPFSLGFEFLPGETYYYISVPTPESSGQCLRLQVSVCCKERKSESAHPVGSPGES
Kd [5]: ~360 nM
